Data as given in paper PMC9011347, “Small-Molecule Inhibitors Targeting Lipolysis in Human Adipocytes” (Journal of the American Chemical Society, 2022).

Tests used:
dog ATGL = test: TAG hydrolase assay, Expi293 lysates expressing ATGL orthologue; format: biochemical
Excerpt: (§1) We previously developed Atglistatin (Ai), a selective inhibitor of mouse ATGL,[31],[32] which is ineffective against human ATGL.[17] Ai acts as a competitive inhibitor targeting the minimal active domain of ATGL ranging from aa 1–254.[33] This domain is highly conserved in different mammalian species (∼90% identity, Table 1) and comprises the patatin-like domain, eponymous for all members of the patatin-like phospholipase domain-containing (PNPLA) protein family.[34] We first investigated the species selectivity of Ai by performing TAG hydrolase assays[35] with lysates from Expi293 cells expressing ATGL orthologues of different species. The activity of ATGL is strongly stimulated by the co-activator protein comparative gene identification-58 (CGI-58, also known as α/β hydrolase domain containing 5, ABHD5)[36] and can be suppressed by the inhibitory protein G0/G1 switch 2 (G0S2).[37] We therefore determined ATGL activity in the presence and absence of mouse CGI-58, mouse G0S2, and Ai. As shown in Figure 1a–i, all ATGL orthologues were expressed, enzymatically active, stimulated by mouse CGI-58, and inactivated by mouse G0S2. Ai inhibited mouse (Figure 1a), rat (Figure 1b), goat (Figure 1c), dog (Figure 1e), and marmoset ATGL (Figure 1f), but not pig (Figure 1d), rhesus monkey (Figure 1g), or human ATGL (Figure 1h).
(§2) Experimental details, materials, and methods
(§3) Expression of recombinant ATGL constructs and preparation of cell lysates. Expi293 cells were cultivated in Expi293 Expression Medium (GIBCO, Thermo Fisher Scientific, Waltham, USA) at standard conditions (37°C, 5% CO2, 95% humidified atmosphere, 125 rpm). DNA constructs containing ATGL from different species and chimeric ATGL variants in pcDNA3.1(+)myc-His C Vector were obtained from BioCat GmbH (Heidelberg, Germany). Cells were transfected with ExpiFectamine293 Transfection Kit (GIBCO) in Opti-Mem reduced serum medium (GIBCO) according to the manufacturer’s instructions. After 48 h, cells were harvested by centrifugation and washed three times with PBS. Cells were disrupted in buffer A (0.25 M sucrose, 1 mM EDTA, 1 mM dithiothreitol, 20µg/ml leupeptin, 2 µg/ml antipain, 1 µg/ml pepstatin, pH 7.0) by sonication (Virsonic 475, Virtis, Gardiner, USA). Nuclei and debris were removed by centrifugation at 1,000 g and 4°C for 10 min. Protein concentrations were determined using Bio-Rad protein assay (Bio-Rad 785, Bio-Rad Laboratories, Munich, Germany) using BSA as standard.
(§4) Expression and purification of mouse CGI-58. CGI-58 was expressed and purified as described 1. In brief, the coding sequence of mouse Cgi-58 was cloned into pHis-Sumo and co-transformed with the plasmid pTf16 expressing the chaperone Tig into E. coli BL21(DE3). Cells were cultured overnight at 37°C and 180 rpm in the presence of 40 µg/ml kanamycin and 34 µg/ml chloramphenicol. Thereafter, cells were transferred into fresh LB medium, grown until OD600 of 0.6, and expression was induced by the addition of 0.5 mM IPTG. After overnight incubation at 30°C, cells were harvested at 4,500 x g and 4°C for 20 min, washed in 1x PBS, and resuspended in lysis buffer (20 mM Tris/HCl pH 7.8, 300 mM NaCl, 30 mM imidazole, 0.1% IGEPAL CA-630, 3.5 mM β-mercaptoethanol, 20 µg/ml leupeptin, 2 µg/ml antipain and 1 µg/ml pepstatin). Cells were incubated with 1 mg/ml lysozyme at 4°C for 20 min, disrupted by sonication, and lysates were centrifuged at 30,000 x g and 4°C for 40 min. His-CGI-58 was purified from the supernatant using an ÄKTA pure system (Cytiva, Uppsala, Sweden) equipped with a 5 ml HisTrap […]
(§5) Expression and purification of mouse G0S2. Chemically competent E. coli ArcticExpress (DE3) cells were transformed with the pST50-SMT3-TEV-mG0S2-His expression plasmid, plated on LB agar plates containing 100 ampicillin, and incubated […] overnight at 37°C. The next day, 10 ml LB medium supplemented with 100 μg/ml ampicillin, 20 μg/ml gentamycin and 2% glucose were inoculated with a single colony and incubated overnight at 37°C. […]

goat ATGL = test: as above; format: biochemical
Excerpt: as §1, §2, §3, §4, §5

marmoset ATGL = test: as above; format: biochemical
Excerpt: as §1, §2, §3, §4, §5

mouse ATGL = molecular target: T1, mouse ATGL (Mus musculus, UniProt Q8BJ56); test: as above; format: biochemical
T1 construct: host or cells: Expi293 cells, crude lysate
Excerpt: as §1, §2, §3, §4, §5

rat ATGL = molecular target: T2, rat ATGL (Rattus norvegicus, UniProt P0C548); test: as above; format: biochemical
T2 construct: host or cells: Expi293 cells, crude lysate
Excerpt: as §1, §2, §3, §4, §5

human ATGL = molecular target: T3, human ATGL (Homo sapiens, UniProt Q96AD5); set-up: method as in PMID 28327588; conditions: cited from earlier work
T3 construct: host or cells: Expi293 cells, crude lysate
T3 sequence (Q96AD5 1-504): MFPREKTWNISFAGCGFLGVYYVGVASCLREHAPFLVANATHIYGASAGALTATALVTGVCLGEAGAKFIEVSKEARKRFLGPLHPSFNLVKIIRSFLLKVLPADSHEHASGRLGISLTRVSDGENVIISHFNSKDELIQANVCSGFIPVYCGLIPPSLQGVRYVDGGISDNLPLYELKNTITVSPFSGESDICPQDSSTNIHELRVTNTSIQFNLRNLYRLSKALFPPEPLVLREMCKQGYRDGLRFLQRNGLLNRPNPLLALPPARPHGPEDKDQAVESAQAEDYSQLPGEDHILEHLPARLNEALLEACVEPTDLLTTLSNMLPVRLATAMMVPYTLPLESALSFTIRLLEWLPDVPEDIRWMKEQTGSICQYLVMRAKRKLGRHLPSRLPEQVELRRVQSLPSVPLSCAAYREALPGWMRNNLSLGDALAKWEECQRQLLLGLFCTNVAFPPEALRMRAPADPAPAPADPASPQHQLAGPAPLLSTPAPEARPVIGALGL

T2 sequence (P0C548 whole entry): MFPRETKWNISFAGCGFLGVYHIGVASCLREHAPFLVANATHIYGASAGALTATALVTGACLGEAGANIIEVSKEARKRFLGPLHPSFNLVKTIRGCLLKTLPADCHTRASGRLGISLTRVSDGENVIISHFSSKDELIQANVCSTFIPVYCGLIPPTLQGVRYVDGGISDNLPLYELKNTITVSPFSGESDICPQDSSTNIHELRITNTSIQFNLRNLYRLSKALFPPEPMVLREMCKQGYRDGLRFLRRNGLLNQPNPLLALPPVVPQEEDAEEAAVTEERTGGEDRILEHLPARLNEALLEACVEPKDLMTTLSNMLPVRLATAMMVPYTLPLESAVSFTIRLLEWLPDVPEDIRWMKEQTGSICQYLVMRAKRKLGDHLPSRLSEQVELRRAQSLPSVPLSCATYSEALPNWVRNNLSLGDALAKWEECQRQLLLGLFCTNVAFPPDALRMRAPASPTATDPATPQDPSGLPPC
T1 sequence (Q8BJ56 whole entry): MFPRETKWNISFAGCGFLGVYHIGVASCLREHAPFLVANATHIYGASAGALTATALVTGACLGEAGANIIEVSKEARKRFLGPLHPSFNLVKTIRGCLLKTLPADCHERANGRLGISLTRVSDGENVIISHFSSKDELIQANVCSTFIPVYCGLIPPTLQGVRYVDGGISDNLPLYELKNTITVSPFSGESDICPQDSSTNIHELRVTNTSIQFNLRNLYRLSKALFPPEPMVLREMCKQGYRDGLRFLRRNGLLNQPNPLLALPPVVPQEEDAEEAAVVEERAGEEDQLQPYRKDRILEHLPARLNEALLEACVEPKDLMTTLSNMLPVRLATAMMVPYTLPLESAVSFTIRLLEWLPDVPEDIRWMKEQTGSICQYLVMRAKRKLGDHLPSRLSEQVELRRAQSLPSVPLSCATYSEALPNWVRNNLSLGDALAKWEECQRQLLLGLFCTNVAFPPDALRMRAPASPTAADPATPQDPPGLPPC

Compound | inhibition of TAG hydrolase activity (dog ATGL; Atglistatin (Ai) 40 μM) | inhibition of TAG hydrolase activity (goat ATGL; Atglistatin (Ai) 40 μM) | inhibition of TAG hydrolase activity (marmoset ATGL; Atglistatin (Ai) 40 μM) | inhibition of TAG hydrolase activity (mouse ATGL; Atglistatin (Ai) 40 μM) | inhibition of TAG hydrolase activity (rat ATGL; Atglistatin (Ai) 40 μM) | efficacy against human ATGL (human ATGL) | reduction in TAG hydrolase activity (dog ATGL; NG-497 50 μM) | reduction in TAG hydrolase activity (goat ATGL; NG-497 50 μM) | reduction in TAG hydrolase activity (marmoset ATGL; NG-497 50 μM) | reduction in TAG hydrolase activity (mouse ATGL; NG-497 50 μM) | reduction in TAG hydrolase activity (rat ATGL; NG-497 50 μM)
CN(C)C(=O)Nc1cccc(-c2ccc(N(C)C)cc2)c1 [Atglistatin, reference compound] | inhibited | inhibited | inhibited | inhibited | inhibited | ineffective | – | – | – | – | –
CCOc1ccc(-c2cc(OC)cc(C(=O)OC(C)C)n2)cc1 [NG-497] | – | – | – | – | – | – | less than 20% | less than 20% | less than 20% | less than 20% | less than 20%
